From patent US20230219931A1, “FUSED HETEROARYL HYDROXAMATES AS STING AGONISTS” (BiSiChem Co., Ltd., priority 2022, published 2023) come the findings set out here.

Usually EC50 stands for the concentration that produces a half-maximal response.

For this experiment, the system named is ISG reporter activity in THP1-Dual cell. The experiment is described as follows: ISG reporter assay. Type of experiment: cell-based. The settings on record: Homo sapiens, compounds incubated with cells for 24 hours, QUANTI-Blue, absorbance at 655 nm. As for the experimental part:
[Worded in the source for another cell line; this cell line is reported under the same test.] THP1-Blue cells (cat. no. thp-isg) were purchased from InvivoGen (Sandiago, USA). Penicillin—streptomycin (cat. no. L0022-100), Fetal Bovine Serum (FBS) (cat. no. S1480-500) and Roswell Park Memorial Institute (RPMI) 1640 media (cat. L0498-500) were purchased from biowest (Nuaille, France). Zeocin (cat. no. ant-zn-OS) and Normocin (cat. no. ant-nr-1) were purchased from InvivoGen (Sandiago, USA). QUANTI-Blue™ (cat. no. rep-qbs) was purchased from InvivoGen. THP1-Blue cells were cultured in RPMI 1640 medium with 10% heat-inactivated FBS, 100 μg/ml Normocin, 100 μg/ml Zeocin and 100 U/ml-100 μg/ml penicillin-streptomycin. The cells were incubated at 37° C. in a humidified atmosphere of 5% CO2.
THP1-Blue cells were seeded at 5×10^4 cells/well (90 μl/well). 10 μl of compounds were added to the cells and incubated for 24 hours. 20 μl of cell culture supernatant was dispensed new 96-well plate (cat. no. 30096) with 180 μl of QUANTI-Blue™ solution and incubated for 15 minutes at 37° C. The absorbance was measured by Varioskan Lux (Thermofisher Scientific, USA) at 655 nm.
On the technique in general: In a reporter assay the amount or activity of a reporter protein is the signal.

Counter-ions that a name gives are not always drawn.

Regarding `CCn1nc(C)cc1C(=O)Nc1nc2cc(C(N)=O)cc(OC)c2n1C/C=C/Cn1c(NC(=O)c2cc(C)nn2CC)nc2cc(C(N)=O)cc(OCC#CC3CCN(C(=O)OC(C)(C)C)CC3)c21` [Example 3, tert-butyl (E)-4-(3-((5-carbamoyl-1-(4-(5-carbamoyl-2-(1-ethyl-3-methyl-1H-pyrazole-5-carboxamido)-7-methoxy-1H-benzo[d]imidazol-1-yl)but-2-en-1-yl)-2-(1-ethyl-3-methyl-1H-pyrazole-5-carboxamido)-1H-benzo[d]imidazol-7-yl)oxy)prop-1-yn-1-yl)piperidine-1-carboxylate], the EC50 is under 50 nM.
In turn, `CCn1nc(C)cc1C(=O)Nc1nc2cc(C(N)=O)cc(OC)c2n1C/C=C/Cn1c(NC(=O)c2cc(C)nn2CC)nc2cc(C(N)=O)cc(OCC#CC3CCN(C(=O)N4CCNCC4)CC3)c21` [Example 17, (E)-1-(4-(5-carbamoyl-2-(1-ethyl-3-methyl-1H-pyrazole-5-carboxamido)-7-((3-(1-(piperazine-1-carbonyl)piperidin-4-yl)prop-2-yn-1-yl)oxy)-1H-benzo[d]imidazol-1-yl)but-2-en-1-yl)-2-(1-ethyl-3-methyl-1H-pyrazole-5-carboxamido)-7-methoxy-1H-benzo[d]imidazole-5-carboxamide hydrochloride] displayed an EC50 of under 50 nM.
In turn, `CCn1nc(C)cc1C(=O)Nc1nc2cc(C(N)=O)cc(OC)c2n1C/C=C/Cn1c(NC(=O)c2cc(C)nn2CC)nc2cc(C(N)=O)cc(OCC#CC3CCN(S(=O)(=O)C4CCCC4)CC3)c21` [Example 22, (E)-1-(4-(5-carbamoyl-2-(1-ethyl-3-methyl-1H-pyrazole-5-carboxamido)-7-methoxy-1H-benzo[d]imidazol-1-yl)but-2-en-1-yl)-7-((3-(1-(cyclopentylsulfonyl)piperidin-4-yl)prop-2-yn-1-yl)oxy)-2-(1-ethyl-3-methyl-1H-pyrazole-5-carboxamido)-1H-benzo[d]imidazole-5-carboxamide] displayed an EC50 of under 50 nM.
The result for `CCn1nc(C)cc1C(=O)Nc1nc2cc(C(N)=O)cc(OC)c2n1C/C=C/Cn1c(NC(=O)c2cc(C)nn2CC)nc2cc(C(N)=O)cc(OCC#CC3CCN(C(=O)OC(C)(C)C)C3)c21` (centres unmarked) [Example 31, tert-butyl (E)-3-(3-((5-carbamoyl-1-(4-(5-carbamoyl-2-(1-ethyl-3-methyl-1H-pyrazole-5-carboxamido)-7-methoxy-1H-benzo[d]imidazol-1-yl)but-2-en-1-yl)-2-(1-ethyl-3-methyl-1H-pyrazole-5-carboxamido)-1H-benzo[d]imidazol-7-yl)oxy)prop-1-yn-1-yl)pyrrolidine-1-carboxylate] reads under 50 nM; that for `CCn1nc(C)cc1C(=O)Nc1nc2cc(C(=O)NOC)cc(OC)c2n1C/C=C/Cn1c(NC(=O)c2cc(C)nn2CC)nc2cc(C(N)=O)cc(OCC#CCN3CCN(C(=O)C(C)C)CC3)c21` [Example 39, (E)-1-(4-(5-carbamoyl-2-(1-ethyl-3-methyl-1H-pyrazole-5-carboxamido)-7-((4-(4-isobutyrylpiperazin-1-yl)but-2-yn-1-yl)oxy)-1H-benzo[d]imidazol-1-yl)but-2-en-1-yl)-2-(1-ethyl-3-methyl-1H-pyrazole-5-carboxamido)-N,7-dimethoxy-1H-benzo[d]imidazole-5-carboxamide], over 500 nM.
The result for `CCn1nc(C)cc1C(=O)Nc1nc2cc(C(N)=O)cc(OC)c2n1C/C=C/Cn1c(NC(=O)c2cc(C)nn2CC)nc2cc(C(N)=O)cc(OCC#CC3CCN(S(=O)(=O)N4CCCC4)CC3)c21` [Example 26, (E)-1-(4-(5-carbamoyl-2-(1-ethyl-3-methyl-1H-pyrazole-5-carboxamido)-7-((3-(1-(pyrrolidin-1-ylsulfonyl)piperidin-4-yl)prop-2-yn-1-yl)oxy)-1H-benzo[d]imidazol-1-yl)but-2-en-1-yl)-2-(1-ethyl-3-methyl-1H-pyrazole-5-carboxamido)-7-methoxy-1H-benzo[d]imidazole-5-carboxamide] reads under 50 nM; that for `CCn1nc(C)cc1C(=O)Nc1nc2cc(C(N)=O)cc(OC)c2n1C/C=C/Cn1c(NC(=O)c2cc(C)nn2CC)nc2cc(C(N)=O)cc(OCC#CC3CCN(C(=O)OC4CCNCC4)CC3)c21` [Example 9, piperidin-4-yl (E)-4-(3-((5-carbamoyl-1-(4-(5-carbamoyl-2-(1-ethyl-3-methyl-1H-pyrazole-5-carboxamido)-7-methoxy-1H-benzo[d]imidazol-1-yl)but-2-en-1-yl)-2-(1-ethyl-3-methyl-1H-pyrazole-5-carboxamido)-1H-benzo[d]imidazol-7-yl)oxy)prop-1-yn-1-yl)piperidine-1-carboxylate hydrochloride], 50 to 500 nM; that for `CCn1nc(C)cc1C(=O)Nc1nc2cc(C(N)=O)cc(OC)c2n1C/C=C/Cn1c(NC(=O)c2cc(C)nn2CC)nc2cc(C(N)=O)cc(OCC#CCC3CCN(C(=O)OC(C)(C)C)CC3)c21` [Example 42, tert-butyl (E)-4-(4-((5-carbamoyl-1-(4-(5-carbamoyl-2-(1-ethyl-3-methyl-1H-pyrazole-5-carboxamido)-7-methoxy-1H-benzo[d]imidazol-1-yl)but-2-en-1-yl)-2-(1-ethyl-3-methyl-1H-pyrazole-5-carboxamido)-1H-benzo[d]imidazol-7-yl)oxy)but-2-yn-1-yl)piperidine-1-carboxylate], under 50 nM.
In the case of `CCn1nc(C)cc1C(=O)Nc1nc2cc(C(N)=O)cc(OC)c2n1C/C=C/Cn1c(NC(=O)c2cc(C)nn2CC)nc2cc(C(N)=O)cc(OCC#CC3CCN(C(=O)C(C)(C)C)CC3)c21` [Example 11, (E)-1-(4-(5-carbamoyl-2-(1-ethyl-3-methyl-1H-pyrazole-5-carboxamido)-7-((3-(1-pivaloylpiperidin-4-yl)prop-2-yn-1-yl)oxy)-1H-benzo[d]imidazol-1-yl)but-2-en-1-yl)-2-(1-ethyl-3-methyl-1H-pyrazole-5-carboxamido)-7-methoxy-1H-benzo[d]imidazole-5-carboxamide] it was under 50 nM; in that of `CCn1nc(C)cc1C(=O)Nc1nc2cc(C(N)=O)cc(OC)c2n1C/C=C/Cn1c(NC(=O)c2cc(C)nn2CC)nc2cc(C(N)=O)cc(OCC#CC3CCN(C(=O)N4CCOCC4)CC3)c21` [Example 15, (E)-1-(4-(5-carbamoyl-2-(1-ethyl-3-methyl-1H-pyrazole-5-carboxamido)-7-((3-(1-(morpholine-4-carbonyl)piperidin-4-yl)prop-2-yn-1-yl)oxy)-1H-benzo[d]imidazol-1-yl)but-2-en-1-yl)-2-(1-ethyl-3-methyl-1H-pyrazole-5-carboxamido)-7-methoxy-1H-benzo[d]imidazole-5-carboxamide], under 50 nM; in that of `CCn1nc(C)cc1C(=O)Nc1nc2cc(C(N)=O)cc(OC)c2n1C/C=C/Cn1c(NC(=O)c2cc(C)nn2CC)nc2cc(C(N)=O)cc(OCC#CC3CCN(C(=O)OCCO)CC3)c21` [Example 10, 2-hydroxyethyl (E)-4-(3-((5-carbamoyl-1-(4-(5-carbamoyl-2-(1-ethyl-3-methyl-1H-pyrazole-5-carboxamido)-7-methoxy-1H-benzo[d]imidazol-1-yl)but-2-en-1-yl)-2-(1-ethyl-3-methyl-1H-pyrazole-5-carboxamido)-1H-benzo[d]imidazol-7-yl)oxy)prop-1-yn-1-yl)piperidine-1-carboxylate], under 50 nM.
In turn, `CCn1nc(C)cc1C(=O)Nc1nc2cc(C(N)=O)cc(OC)c2n1C/C=C/Cn1c(NC(=O)c2cc(C)nn2CC)nc2cc(C(N)=O)cc(OCC#CC3CCN(C(=O)c4cc(C)nn4CC)CC3)c21` [Example 13, (E)-1-(4-(5-carbamoyl-2-(1-ethyl-3-methyl-1H-pyrazole-5-carboxamido)-7-methoxy-1H-benzo[d]imidazol-1-yl)but-2-en-1-yl)-7-((3-(1-(1-ethyl-3-methyl-1H-pyrazole-5-carbonyl)piperidin-4-yl)prop-2-yn-1-yl)oxy)-2-(1-ethyl-3-methyl-1H-pyrazole-5-carboxamido)-1H-benzo[d]imidazole-5-carboxamide] showed an EC50 of under 50 nM.
The result for `CCn1nc(C)cc1C(=O)Nc1nc2cc(C(N)=O)cc(OC)c2n1C/C=C/Cn1c(NC(=O)c2cc(C)nn2CC)nc2cc(C(N)=O)cc(OCC#CC3CCN(S(=O)(=O)C4CC4)CC3)c21` [Example 21, (E)-1-(4-(5-carbamoyl-2-(1-ethyl-3-methyl-1H-pyrazole-5-carboxamido)-7-methoxy-1H-benzo[d]imidazol-1-yl)but-2-en-1-yl)-7-((3-(1-(cyclopropylsulfonyl)piperidin-4-yl)prop-2-yn-1-yl)oxy)-2-(1-ethyl-3-methyl-1H-pyrazole-5-carboxamido)-1H-benzo[d]imidazole-5-carboxamide] reads under 50 nM; that for `CCn1nc(C)cc1C(=O)Nc1nc2cc(C(N)=O)cc(OC)c2n1C/C=C/Cn1c(NC(=O)c2cc(C)nn2CC)nc2cc(C(N)=O)cc(OCC#CCC3CCN(C(=O)OC(C)(C)C)C3)c21` (centres unmarked) [Example 51, tert-butyl (E)-3-(4-((5-carbamoyl-1-(4-(5-carbamoyl-2-(1-ethyl-3-methyl-1H-pyrazole-5-carboxamido)-7-methoxy-1H-benzo[d]imidazol-1-yl)but-2-en-1-yl)-2-(1-ethyl-3-methyl-1H-pyrazole-5-carboxamido)-1H-benzo[d]imidazol-7-yl)oxy)but-2-yn-1-yl)pyrrolidine-1-carboxylate], under 50 nM.
